Assay results taken from patent US20040086995A1, “Beta1, 4-N-Acetylgalactosaminyltransferases, nucleic acids and methods of use thereof” (priority 2002, published 2004).
One block for each molecule: values may come before it.

What was measured:
SH-Ceβ4GalNAcT [1] = target: T1, SH-Ceβ4GalNAcT (Caenorhabditis elegans, UniProt Q9GUM2); assay: β4GalNAcT assay, effect of α-lactalbumin on acceptor use; format: biochemical, C. elegans; conditions: for Relative activity (%): UDPGalNAc 0.5 mM, GlcNAc 1 mM or Glc 30 mM
T1 construct: the catalytic domain of the Ceβ4GalNAcT (beginning at K34, the first amino acid after the transmembrane domain); signal peptide (from vector pcDNA3.1(+)-TH) (N); made in house; host or cells: CHO-Lec8 (and CHO-Lec2) cells, stably transfected; enzyme captured from the culture medium on HPC4-UltraLink beads
Method: (§1) Purification of SH-C.E.β4GalNAcT—Medium containing SH-Ceβ4GalNAcT was centrifuged at 1,500×g for 5 min to remove cellular debris, and then incubated with HPC4-UltraLink beads (5 mg HPC4 antibody per ml of beads; 0.1 ml of beads per ml of medium) for one hour at room temperature on a rotating platform. The beads were collected by centrifugation at 600×g for 3 min, and washed three times with 10 ml of 100 mM sodium cacodylate pH 7.0, 2 mM CaCl2. The beads were then resuspended in the same buffer with the addition of 20 mM MnCl2, and used as the enzyme source. For Western blot analysis, the bound material was released by incubating the beads in a buffer of 50 mM sodium cacodylate pH 7.0, 20 mM EDTA for 10 min at room temperature, then collecting the supernatant.
(§2) β4GalNAcT assays—Standard assays were performed essentially as described previously (40) in a […] reaction mixture containing […] sodium cacodylate pH 7.2, 12.5 nmol UDP-[^3H]GalNAc (2.5 Ci/mol), […] MnCl2, […] ATP, […] Triton X-100, […] beads and acceptor substrate, containing 25 nmol of terminal GlcNAc at the non-reducing end unless otherwise indicated. Control assays lacking the acceptor substrate were carried out to correct for incorporation into endogenous acceptors, and all assays were carried out in duplicate. After incubation at 37° C. for 180 min the reaction was stopped. When oligosaccharides or glycopeptides were the acceptor, the labeled product was separated from unincorporated label by chromatography on a 1-ml column of Dowex 1-X8 (Cl^−-form) according to Easton et al., (44). When oligosaccharide acceptors with hydrophobic aglycon (pNP) were used as the acceptor, the product was isolated using Sep-pak C-18 cartridges (Waters) as described (45). The isolated products were assayed for incorporation of radioactivity by liquid scintillation.

SH-Ceβ4GalNAcT [2] = target: T1, SH-Ceβ4GalNAcT; assay: β4GalNAcT assay, acceptor specificity; format: biochemical, C. elegans
Method: as §1
β4GalNAcT assays—Standard assays were performed essentially as described previously (40) in a […] reaction mixture containing […] sodium cacodylate pH 7.2, 12.5 nmol UDP-[^3H]GalNAc (2.5 Ci/mol), […] MnCl2, […] ATP, […] Triton X-100, […] beads and acceptor substrate, containing 25 nmol of terminal GlcNAc at the non-reducing end unless otherwise indicated. Control assays lacking the acceptor substrate were carried out to correct for incorporation into endogenous acceptors, and all assays were carried out in duplicate. […] The isolated products were assayed for incorporation of radioactivity by liquid scintillation.

SH-Ceβ4GalNAcT [3] = target: T1, SH-Ceβ4GalNAcT; assay: β4GalNAcT assay, sugar nucleotide (donor) specificity; format: biochemical, C. elegans; conditions: for Relative activity (%): acceptor GlcNAcβ-S-pNP 1 mM, donor 0.5 mM, enzyme on HPC4-beads, 100% = UDP-GalNAc
Method: as §1, §2

[4] = target: SH-Ceβ4GalNAcT (soluble, HPC4-epitope tagged form of C. elegans UDPGalNAc:GlcNAcβ-R β1,4-N-acetylgalactosaminyltransferase, encoded by Y73E7A.7) (C. elegans); assay: cell-based or functional assay
Sequence of SH-Ceβ4GalNAcT (soluble, HPC4-epitope tagged form of C. elegans UDPGalNAc:GlcNAcβ-R β1,4-N-acetylgalactosaminyltransferase, encoded by Y73E7A.7) (C. elegans) (Q9GUM2 34-383): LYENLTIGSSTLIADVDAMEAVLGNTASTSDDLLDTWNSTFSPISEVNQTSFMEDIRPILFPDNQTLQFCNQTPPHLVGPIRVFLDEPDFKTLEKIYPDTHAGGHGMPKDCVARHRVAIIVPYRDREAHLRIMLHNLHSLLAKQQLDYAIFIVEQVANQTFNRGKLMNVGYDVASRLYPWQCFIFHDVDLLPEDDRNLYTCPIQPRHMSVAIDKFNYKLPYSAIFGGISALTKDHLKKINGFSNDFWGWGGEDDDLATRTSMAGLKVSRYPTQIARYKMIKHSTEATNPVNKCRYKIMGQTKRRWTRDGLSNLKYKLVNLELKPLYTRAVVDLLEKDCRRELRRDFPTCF

T1 sequence (Q9GUM2 30-383 limits assumed): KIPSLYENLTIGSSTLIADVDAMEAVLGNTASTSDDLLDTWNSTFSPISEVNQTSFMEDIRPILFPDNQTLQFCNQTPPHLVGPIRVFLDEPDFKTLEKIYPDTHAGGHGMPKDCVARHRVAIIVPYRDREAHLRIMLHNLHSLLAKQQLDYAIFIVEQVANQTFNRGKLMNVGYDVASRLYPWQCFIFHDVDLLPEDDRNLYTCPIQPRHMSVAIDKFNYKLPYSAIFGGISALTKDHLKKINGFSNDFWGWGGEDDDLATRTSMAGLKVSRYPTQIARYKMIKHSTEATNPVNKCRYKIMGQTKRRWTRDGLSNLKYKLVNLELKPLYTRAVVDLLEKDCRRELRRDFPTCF

Molecule: CC(=O)N[C@@H]1[C@@H](O)[C@H](O)[C@@H](CO)O[C@H]1O [Acceptor 9, GlcNAc]
Relative activity (%) (SH-Ceβ4GalNAcT [1]; with a-Lactalbumin 5 mg/ml): 40%
Relative activity (%) (SH-Ceβ4GalNAcT [1]; without a-Lactalbumin): 100%
utilization as acceptor substrate (SH-Ceβ4GalNAcT [2]): efficiently utilized

Molecule: OC[C@H]1OC(O)[C@H](O)[C@@H](O)[C@@H]1O (stereo partly drawn) [Glc]
Relative activity (%) (SH-Ceβ4GalNAcT [1]; with a-Lactalbumin 5 mg/ml): 6%
Relative activity (%) (SH-Ceβ4GalNAcT [1]; without a-Lactalbumin): 3%

Molecule: CC(=O)N[C@H]1[C@@H](OP(=O)(O)OP(=O)(O)OC[C@H]2O[C@@H](n3ccc(=O)[nH]c3=O)[C@H](O)[C@@H]2O)O[C@H](CO)[C@H](O)[C@@H]1O [UDP-GalNAc]
utilization as nucleotide-sugar donor (SH-Ceβ4GalNAcT [3]): efficiently utilized
Relative activity (%) (SH-Ceβ4GalNAcT [3]): 100%

B1: a-lactalbumin: modifier protein expressed in lactating mammary glands, associates with β4GalT I and switches its acceptor specificity (protein, UniProt P00709 20-142, looked up)
Alpha-lactalbumin: KQFTKCELSQLLKDIDGYGGIALPELICTMFHTSGYDTQAIVENNESTEYGLFQISNKLWCKSSQVPQSRNICDISCDKFLDDDITDDIMCAKKILDIKGIDYWLAHKALCTEKLEQWLCEKL
effect of α-lactalbumin on acceptor specificity (SH-Ceβ4GalNAcT [1]): did not induce SH-Ceβ4GalNAcT to utilize Glc as an acceptor instead of GlcNAc

Other lines, results leading:

utilization as nucleotide-sugar donor (SH-Ceβ4GalNAcT [3]): did not significantly utilize
Relative activity (%) (SH-Ceβ4GalNAcT [3]): 0.7%
Molecule: CC(=O)N[C@H]1[C@@H](OP(=O)(O)OP(=O)(O)OC[C@H]2O[C@@H](n3ccc(=O)[nH]c3=O)[C@H](O)[C@@H]2O)O[C@H](CO)[C@@H](O)[C@@H]1O [UDP-GlcNAc]

Relative activity (%) of SH-Ceβ4GalNAcT with Glc (30 mM) as acceptor in the presence of a-lactalbumin (5 mg/ml); 3 without it [4]: 6%
Relative activity (%) of SH-Ceβ4GalNAcT with GlcNAc (1 mM) as acceptor in the presence of a-lactalbumin (5 mg/ml); 100 without it [4]: 40%
Molecule: α-lactalbumin
